Where “and” joins values, the source holds several entries; their conditions need not be identical. Identical values can stand only once. Inconclusive results and toxic doses are left out. Cut-off read from the data, not from the text of the source: active = T/C of 150% or more; inactive = T/C below 125%.
Test system: L1210 leukemia ip in BDF1 mice, survival T/C
Test: NCI In Vivo Anticancer Drug Screen. Data for tumor model L1210 Leukemia (intraperitoneal) in B6D2F1 (BDF1) mice
Details: endpoint: mean survival time, higher = longer survival
Summary of the method: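 Read-out is survival time, reported as the treated-group measurement over the vehicle-control measurement.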

[1] = dose: 100.0 mg/kg/injection, schedule: Q01DX009 (ip), vehicle: Klucel (hydroxypropylcellulose) (HPC)
[2] = dose: 100.0 mg/kg/injection, schedule: Q04DX003 (ip), vehicle: Klucel (hydroxypropylcellulose) (HPC)
[3] = dose: 200.0 mg/kg/injection, schedule: Q01DX009 (ip), vehicle: Klucel (hydroxypropylcellulose) (HPC)
[4] = dose: 200.0 mg/kg/injection, schedule: Q04DX003 (ip), vehicle: Klucel (hydroxypropylcellulose) (HPC)
[5] = dose: 400.0 mg/kg/injection, schedule: Q01DX009 (ip), vehicle: Klucel (hydroxypropylcellulose) (HPC)
[6] = dose: 400.0 mg/kg/injection, schedule: Q04DX003 (ip), vehicle: Klucel (hydroxypropylcellulose) (HPC)
[7] = dose: 100.0 mg/kg/injection, schedule: Q01DX009 (ip), vehicle: saline with Tween-80
[8] = dose: 100.0 mg/kg/injection, schedule: Q04DX003 (ip), vehicle: saline with Tween-80
[9] = dose: 200.0 mg/kg/injection, schedule: Q04DX003 (ip), vehicle: saline with Tween-80
[10] = dose: 400.0 mg/kg/injection, schedule: Q04DX003 (ip), vehicle: saline with Tween-80
[11] = dose: 100.0 mg/kg/injection, schedule: Q04DX002 (ip), vehicle: Klucel (hydroxypropylcellulose) (HPC)
[12] = dose: 200.0 mg/kg/injection, schedule: Q04DX002 (ip), vehicle: Klucel (hydroxypropylcellulose) (HPC)
[13] = dose: 400.0 mg/kg/injection, schedule: Q04DX002 (ip), vehicle: Klucel (hydroxypropylcellulose) (HPC)
[14] = dose: 100.0 mg/kg/injection, schedule: Q01DX001 (ip), vehicle: saline
[15] = dose: 200.0 mg/kg/injection, schedule: Q01DX001 (ip), vehicle: saline
[16] = dose: 400.0 mg/kg/injection, schedule: Q01DX001 (ip), vehicle: saline
[17] = dose: 50.0 mg/kg/injection, schedule: Q01DX009 (ip), vehicle: saline
[18] = dose: 100.0 mg/kg/injection, schedule: Q01DX009 (ip), vehicle: saline
[19] = dose: 25.0 mg/kg/injection, schedule: Q01DX009 (ip), vehicle: saline
[20] = dose: 50.0 mg/kg/injection, schedule: Q04DX003 (ip), vehicle: saline
[21] = dose: 100.0 mg/kg/injection, schedule: Q04DX003 (ip), vehicle: saline

Measured: T/C

O=C1N(c2nncs2)CCN1[N+](=O)[O-]
inactive: [1] 95 % of control | [2] 95 % of control | [3] 98 % of control | [4] 98 % of control | [5] 103 % of control | [6] 102 % of control

Cc1ccc([N+](=O)[O-])cc1NC(=O)Nc1ccccc1C(F)(F)F
inactive: [1] 93 % of control | [3] 96 % of control | [5] 95 % of control

O=[N+]([O-])c1ccc(/C=C/CCOc2ccccc2)cc1
inactive: [1] 98 % of control | [2] 97 % of control | [3] 96 % of control | [4] 105 % of control | [5] 91 % of control | [6] 105 % of control

Cc1ccccc1C(Br)C1=CC(C)(C)c2ccccc2C1=O (configuration not stated)
inactive: [1] 101 % of control | [2] 97 % of control | [3] 105 % of control | [4] 92 % of control | [5] 95 % of control | [6] 90 % of control

C[n+]1ccccc1CCC(=O)Nc1ccccc1
inactive: [7] 87 % of control

CC(=O)Oc1cc(OC(C)=O)c(Oc2cc(OC(C)=O)c(OC(C)=O)c(OC(C)=O)c2)c(OC(C)=O)c1
inactive: [8] 97 % of control | [9] 95 % of control | [10] 90 % of control

C=Cc1c2[n-]c(c1C)/C=c1\[n-]/c(c(C)c1C=C)=C\c1[n-]c(c(CCC(=O)O)c1C)/C=c1\[n-]/c(c(C)c1CCC(=O)O)=C\2.[Co]
inactive: dose: 100.0 mg/kg/injection, schedule: Q01DX009 (ip), vehicle: dextrose 88 % of control | dose: 100.0 mg/kg/injection, schedule: Q04DX003 (ip), vehicle: dextrose 94 % of control | dose: 200.0 mg/kg/injection, schedule: Q01DX009 (ip), vehicle: dextrose 94 % of control | dose: 200.0 mg/kg/injection, schedule: Q04DX003 (ip), vehicle: dextrose 104 % of control | dose: 400.0 mg/kg/injection, schedule: Q04DX003 (ip), vehicle: dextrose 94 % of control | dose: 1:1.0 dilution, schedule: Q04DX002 (ip), vehicle: saline 104 % of control | dose: 1:2.0 dilution, schedule: Q04DX002 (ip), vehicle: saline 104 % of control | dose: 1:4.0 dilution, schedule: Q04DX002 (ip), vehicle: saline 86 % of control

CCCC[N+](C)(CC(C)C)C1CCCCCCC1 (configuration not stated)
inactive: dose: 75.0 mg/kg/injection, schedule: Q01DX001 (ip), vehicle: carboxymethylcellulose (CMC) 104 % of control | dose: 75.0 mg/kg/injection, schedule: Q01DX001 (ip), vehicle: saline 96 % of control | dose: 150.0 mg/kg/injection, schedule: Q01DX001 (ip), vehicle: saline 93 % of control

COc1cc(OC)cc(C(=O)N2CC2)c1
inactive: dose: 25.0 mg/kg/injection, schedule: Q01DX009 (ip), vehicle: water 100 % of control | dose: 50.0 mg/kg/injection, schedule: Q01DX009 (ip), vehicle: water 88 % of control

C/C=C/C(=O)Nc1ccc(Cl)c(Cl)c1
inactive: [11] 94 % of control | [12] 90 % of control | [13] 90 % of control

CCOc1ccc(/C=N/Nc2ccc([N+](=O)[O-])cc2)cc1OC
inactive: dose: 25.0 mg/kg/injection, schedule: Q01DX009 (ip), vehicle: saline sonified 93 % of control | dose: 37.5 mg/kg/injection, schedule: Q01DX009 (ip), vehicle: saline with Tween-80 91 % of control | dose: 50.0 mg/kg/injection, schedule: Q01DX009 (ip), vehicle: saline sonified 103 % of control | dose: 75.0 mg/kg/injection, schedule: Q01DX009 (ip), vehicle: saline with Tween-80 93 % of control | dose: 100.0 mg/kg/injection, schedule: Q01DX009 (ip), vehicle: saline sonified 98 % of control | [8] 90 % of control | dose: 150.0 mg/kg/injection, schedule: Q01DX009 (ip), vehicle: saline with Tween-80 96 % of control | [9] 97 % of control | dose: 400.0 mg/kg/injection, schedule: Q04DX003 (ip), vehicle: saline sonified 88 % of control | [10] 87 % of control

C=CCSCn1ncc2ccc([N+](=O)[O-])cc21
inactive: [14] 94 % of control | [15] 92 % of control | [16] 96 % of control

CCCCNC(=O)NCCN(C)c1ccccc1
inactive: [11] 94 % of control | [12] 97 % of control | [13] 102 % of control

FC(F)(F)c1cccc(NC2=NCCS2)c1
inactive: dose: 50.0 mg/kg/injection, schedule: Q01DX009 (ip), vehicle: saline with Tween-80 91 % of control | [7] 98 % of control | dose: 100.0 mg/kg/injection, schedule: Q04DX002 (ip), vehicle: saline with Tween-80 97 % of control | dose: 200.0 mg/kg/injection, schedule: Q04DX002 (ip), vehicle: saline with Tween-80 115 % of control

O=C(CCCC(=O)N/N=C/c1ccc(-c2ccccc2)cc1)N/N=C\c1ccc(-c2ccccc2)cc1
inactive: dose: 50.0 mg/kg/injection, schedule: Q01DX001 (ip), vehicle: saline 96 % of control | [14] 98 % of control | [15] 96 % of control | [16] 96 % of control

O=S(Cc1ccccc1)c1ccccc1 (configuration not stated)
inactive: dose: 75.0 mg/kg/injection, schedule: Q04DX002 (ip), vehicle: Klucel (hydroxypropylcellulose) (HPC) 115 % of control | dose: 150.0 mg/kg/injection, schedule: Q04DX002 (ip), vehicle: Klucel (hydroxypropylcellulose) (HPC) 100 % of control | dose: 300.0 mg/kg/injection, schedule: Q04DX002 (ip), vehicle: Klucel (hydroxypropylcellulose) (HPC) 93 % of control

COCC1OC(OC2OCC3OC4(OCC(O)(C(C)OC)C5OCOC54)OC3C2OC)C(OC)C(O)C1OC1OC(C)C(OC)C(OC2OC(C)C3OC4(CC(O)C(OC5CC(OC6CC(C)([N+](=O)[O-])C(OC)C(C)O6)C(OC(=O)c6c(C)c(Cl)c(O)c(Cl)c6OC)C(C)O5)C(C)O4)OC3(C)C2O)C1O (configuration not stated)
inactive: [17] 106 % of control | [18] 106 % of control | dose: 200.0 mg/kg/injection, schedule: Q01DX009 (ip), vehicle: saline 96 % of control

O/N=C(/CBr)c1ccccc1
inactive: dose: 12.5 mg/kg/injection, schedule: Q04DX002 (ip), vehicle: gum acacia 109 % of control | dose: 25.0 mg/kg/injection, schedule: Q04DX002 (ip), vehicle: gum acacia 87 % of control | dose: 50.0 mg/kg/injection, schedule: Q04DX002 (ip), vehicle: gum acacia 102 % of control

C/C=C/CC1(Cc2ccccc2)C(=O)NC(=S)NC1=O
inactive: dose: 10.0 mg/kg/injection, schedule: Q01DX001 (ip), vehicle: saline 102 % of control | dose: 20.0 mg/kg/injection, schedule: Q01DX001 (ip), vehicle: saline 111 % of control

Nc1nc[nH]c1-c1n[nH]c(=O)[nH]1
inactive: dose: 100.0 mg/kg/injection, schedule: Q01DX001 (ip), vehicle: Klucel (hydroxypropylcellulose) (HPC) 108 % of control | dose: 200.0 mg/kg/injection, schedule: Q01DX001 (ip), vehicle: Klucel (hydroxypropylcellulose) (HPC) 104 % of control

COC(=O)c1ccccc1NC(=O)Nc1cccc(OC)c1
inactive: [11] 108 % of control | [12] 97 % of control | [13] 105 % of control

NC1CC1c1ccccc1 (configuration not stated)
inactive: dose: 12.5 mg/kg/injection, schedule: Q04DX003 (ip), vehicle: saline 98 % of control and 93 % of control | [19] 97 % of control | dose: 25.0 mg/kg/injection, schedule: Q04DX003 (ip), vehicle: saline 96 % of control and 100 % of control and 92 % of control | [17] 105 % of control | [20] 96 % of control and 95 % of control and 100 % of control | [18] 105 % of control | [21] 86 % of control and 103 % of control

COc1nc(=S)n2[nH]cnc2n1
inactive: dose: 12.5 mg/kg/injection, schedule: Q01DX009 (ip), vehicle: saline 89 % of control | [19] 94 % of control | [17] 109 % of control | [20] 102 % of control | [21] 91 % of control | dose: 200.0 mg/kg/injection, schedule: Q04DX003 (ip), vehicle: saline 92 % of control

CCOC(=O)Cn1c(=O)cc(C=O)c2ccccc21
inactive: dose: 100.0 mg/kg/injection, schedule: Q01DX001 (ip), vehicle: carboxymethylcellulose (CMC) 91 % of control | dose: 200.0 mg/kg/injection, schedule: Q01DX001 (ip), vehicle: carboxymethylcellulose (CMC) 91 % of control | dose: 400.0 mg/kg/injection, schedule: Q01DX001 (ip), vehicle: carboxymethylcellulose (CMC) 89 % of control

Reference: PubChem BioAssay AID248 (DTP/NCI, 2004)
